Test results from patent US20130065866A1, “DENTINAL DRUG DELIVERY COMPOSITION AND SCREENING METHOD” (UNIVERSITY OF MEDICINE AND DENTISTRY OF NEW JERSEY, priority 2009, published 2013).

How the values were obtained:
Format in all cases: cell-based, murine
[1] = system: LPS-evoked NO production in RAW cells; test: Direct effect on NO production in RAW cells; conditions: for reduction of spontaneous NO production: absence of LPS stimulation; for inhibition of LPS-evoked NO production: direct treatment
From the text: (§1) After the one or more time intervals (e.g., one or more minutes, hours, or days), the diffusate is collected and tested for activity against an isolated dental pulp cell or isolated population of dental pulp cells. An isolated pulpal cell or population of dental pulp cells refers to cells that are removed from their native environment (i.e., the dental pulp). The isolated cells can be cultured primary cells or cultured cell line and include, but are not limited to fibroblasts, odontoblasts, histiocytes, macrophage, granulocytes, mast cells or plasma cells. Exemplary cell lines include, but are not limited to the murine macrophage cell line, RAW 264.7; immortalized mouse odontoblast cell line, MDPC-23; and the murine fibroblast cell line, 3T3.
(§2) As indicated, in some embodiments it is determined whether the diffusate contains a sufficient amount of test agent to inhibit or decrease the expression or activity of at least one inflammatory mediator of the dental pulp cell. In accordance with this embodiment, the isolated pulpal cell or population of dental pulp cells can be challenged with an inflammation-provoking stimulus (e.g., Lipopolysaccharide (LPS), N-formyl-methionyl-leucyl-phenylalanine, or phorbol myristate acetate) either before or after being contacted with the diffusate, so that the effect of the drug diffusing through the dentin barrier on inflammatory mediator production is assessed.
(§3) Prostaglandins such as PGE2 and nitric oxide (NO) are inflammatory mediators that are generated in injured tissue and influence vascular tissues, nociceptive nerve endings and immune cells. For example, exposure of immune and other cells to bacterial toxins such as LPS evokes production of PGE2 and NO. Other known mediators of inflammation include, but are not limited to, bradykinin, histamine, leukotrienes (Bd, Cd, Dd, Ed) IL-8, and neutrophil and macrophage lysosomal enzymes. The effect of test agents on the expression or activity of one or more of the above-referenced inflammatory mediators can be determined by conventional methods. For example, mRNA expression can be determined by dot blot, northern blot, or reverse transcriptase (RT)-PCR; protein expression can be determined by western blot or ELISA analysis; and NO production can be determined using a Griess reaction assay (e.g., EMSNOTOT kit) or ozone-based chemiluminescence assay.
The direct effect of drugs and lipids on inflammatory mediator production in RAW cells was determined. […] Measurable amounts of NO were produced in the absence of LPS stimulation (˜15 μM).

[2] = system: LPS-evoked PGE2 production in RAW cells; test: Direct effect on LPS-evoked PGE2 production in RAW cells; conditions: direct treatment
From the text: as §1, §2
as §3, with “For example, exposure of immune and other cells to bacterial toxins such as LPS evokes production of PGE2 and NO. Other known mediators of inflammation include, but are not limited to, bradykinin, histamine, leukotrienes (Bd, Cd, Dd, Ed) IL-8, and neutrophil and macrophage lysosomal enzymes.” left out, “assay. […]” for “assay.”

[3] = system: RAW cells; test: Toxicity to cells in the RAW cell study; conditions: levels used in this study
Description: The direct effect of drugs and lipids on inflammatory mediator production in RAW cells was determined.

[4] = system: PGE2 production in LPS-stimulated RAW cells; test: Transdentinal diffusion; diffusate applied to LPS-stimulated RAW cells, PGE2; conditions: 24 hours of diffusion through dentin; diffusate on RAW cells stimulated with LPS
Description: (§4) This screening method of the invention includes the steps of contacting a coronal surface of an isolated dentin sample with a test agent, incubating the test agent and dentin sample so that diffusate is formed on the pulpal side of the dentin sample, contacting an isolated dental pulp cell with the diffusate, and determining whether the diffusate contains a sufficient amount of test agent to act on a cell of the dental pulp. In one embodiment, it is determined whether the diffusate contains a sufficient amount of test agent to inhibit or decrease the expression or activity of at least one inflammatory mediator of the dental pulp cell (e.g., nociceptive nerve endings, blood vesicle cells or inflammatory cells).
(§5) The dentins sample can be isolated by conventional methods and used in combination with a commercially available two-chamber diffusion cell, wherein the partition separating the two chambers holds the dentin sample (e.g., a dentin disk) in an orientation so that the dentin tubules provide the only connection between the two chambers. See, e.g., Hanks, et al. (1993) J. Dent. Res. 72:931-938; and Puapichartdumrong, et al. (2003) Internatl. Endodont. J. 36:674-81. […]

[5] = system: LPS-evoked NO production in RAW cells; test: Transdentinal diffusion; diffusate applied to LPS-stimulated RAW cells, NO; conditions: 24 hours of diffusion through dentin; diffusate on RAW cells stimulated with LPS
Description: as §4, §5

| Structure (SMILES) | reduction of spontaneous NO production [1] | inhibition of LPS-evoked NO production [1] | inhibition of LPS-evoked PGE2 production ([2]; compared to oleic acid) | reduction of LPS-evoked NO production ([1]; 0.5 mM and lower (0.05, 0.005, 0.0005 mM)) | reduction of LPS-evoked NO production ([1]; 5 mM) | toxicity to cells [3] | PGE2 production after diffusate application [4] | LPS-evoked NO production after diffusate application [5] | inhibition of LPS-evoked PGE2 production ([2]; 50 μM) | effect on LPS-evoked NO production ([1]; 50 μM) |
| --- | --- | --- | --- | --- | --- | --- | --- | --- | --- | --- |
| CC/C=C\C/C=C\C/C=C\C/C=C\C/C=C\C/C=C\CCC(=O)O [DHA, docosahexaenoic] | small (not statistically significant) reduction | inhibited NO production but to a lesser extent than aspirin |  |  |  |  |  |  |  |  |
| CC(=O)Oc1ccccc1C(=O)O [aspirin, acetylsalicyclic acid] | small (not statistically significant) reduction | effectively inhibited LPS-evoked NO production | effective inhibitors of LPS-evoked PGE2 production | did not significantly reduce LPS-evoked NO production | significantly reduced NO production | non-toxic to cells | significantly reduced | depressed |  |  |
| CC(C)Cc1ccc(C(C)C(=O)O)cc1 (centres unmarked) [ibuprofen] |  | did suppress NO production | effective inhibitors of LPS-evoked PGE2 production |  |  |  | significantly reduced | did not attenuate LPS-stimulated NO production | inhibited LPS-evoked PGE2 production | no effect on LPS-evoked NO production |
| CCCCCCCC/C=C\CCCCCCCC(=O)O [oleic acid] |  | not shared |  |  |  |  |  |  |  |  |
